Tests used:
[1] = molecular target: T1, Kir2.1 (Homo sapiens, UniProt P63252); test: Thallium flux selectivity assay Kir2.1; assay type: cell-based
T1 construct: expressed in transfected cells
T1 sequence (P63252 1-427): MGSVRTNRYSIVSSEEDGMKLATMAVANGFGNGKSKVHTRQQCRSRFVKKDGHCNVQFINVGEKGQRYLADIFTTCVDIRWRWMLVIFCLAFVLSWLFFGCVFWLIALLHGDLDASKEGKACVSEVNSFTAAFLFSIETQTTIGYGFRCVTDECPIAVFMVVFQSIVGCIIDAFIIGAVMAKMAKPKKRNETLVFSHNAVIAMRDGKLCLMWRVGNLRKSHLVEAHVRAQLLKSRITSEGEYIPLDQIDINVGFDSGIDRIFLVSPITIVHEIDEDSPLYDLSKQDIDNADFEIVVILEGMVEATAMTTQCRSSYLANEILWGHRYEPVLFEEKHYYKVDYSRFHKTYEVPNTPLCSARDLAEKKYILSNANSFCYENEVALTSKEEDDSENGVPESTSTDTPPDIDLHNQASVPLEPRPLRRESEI
Protocol: Quantitative thallium flux assays of Kir6.1/SUR2B activity were performed essentially as described previously for Kir6.2/SUR1 ([Raphemot et al., 2014]; [Kharade et al., 2019]). Stable T-Rex-HEK293-Kir6.1/SUR2B cells or transiently transfected HEK293T cells were plated in polyamine-coated, clear-bottomed, black-walled 384-well plates and were cultured (37°C/5% CO2) overnight in Dulbecco’s modified Eagle’s medium (Gibco, Carlsbad, CA, 11995-065) containing 10% FBS (2 mM Penicillin-Streptomycin). The following day, cells were washed with assay buffer (i.e., Hanks’ balanced salt solution/20 mM HEPES) and loaded for 1 hour with thallium sensor dye Brilliant Thallium (Ion Bioscience, San Marcos, TX) at room temperature. Dye-loaded cells were washed with assay buffer and transferred to a Panoptic Kinetic Imaging Plate Reader (Wavefront Bioscience, Franklin, TN). Control and test compound treatments were for 4 minutes prior to adding 0.5 mM chloride-free thallium stimulus buffer (Ion Bioscience) to initiate thallium flux. […] Selectivity assays against other Kir channels were performed essentially as described previously ([Kharade et al., 2018]; [McClenahan et al., 2022]).

[2] = system: channels containing SUR1; test: Thallium flux, Kir6.1 or Kir6.2 co-expressed with SUR1 in transfected HEK-293 cells; assay type: cell-based; conditions: 3 µM, Fig. 4D
Text: The pcDNA3.1-SUR2B plasmid was generously provided by Dr. Colin Nichols (Washington University). The pcDNA5/TO-Kir6.1 plasmid was synthesized by GenScript. Stably transfected tetracycline-regulated expression human embryonic kidney-293 (T-Rex-HEK293) cells expressing both plasmids were generated by cotransfecting cells with Lipofectamine LTX followed by antibiotic selection and clonal selection using the thallium flux assay described below. Monoclonal lines expressing robust pinacidil-activated thallium flux were selected for high KATP channel activity. T-Rex-HEK293 cells expressing Kir6.2/SUR1 were created as described previously ([Raphemot et al., 2014]). The cell culture media contained Dulbecco’s modified Eagle’s medium (Gibco, 11965-092) supplied with heat-inactivated FBS (bio-techne, Minneapolis, MN S11150H,10%), Blasticidine HCl (Gibco, A11139-03, 10 ug/mL), Penicillin-Streptomycin (Gibco, 15140-122, 2 mM), G418 Sulfate (CORNING, Corning, NY, 30-234-CR, 1 mg/mL), and Hygromycin B (Invitrogen, Carlsbad, CA, 10687-010, 250 ug/mL). […]
Quantitative thallium flux assays of Kir6.1/SUR2B activity were performed essentially as described previously for Kir6.2/SUR1 ([Raphemot et al., 2014]; [Kharade et al., 2019]). […] Dye-loaded cells were washed with assay buffer and transferred to a Panoptic Kinetic Imaging Plate Reader (Wavefront Bioscience, Franklin, TN). […]

[3] = Plasma binding by equilibrium dialysis, rat; assay type: in vitro ADME; conditions: equilibrium dialysis 6 hours 37°C, read-out: Fu, plasma (rat)
Protocol: (§1) Determination of VU0542270 fraction unbound (fu) in plasma from mouse, rat, and human was conducted in vitro via equilibrium dialysis using high-throughput dialysis (HTD) membrane plates. Dialysis membranes (four paired strips per HTD assay) were hydrated as described by the manufacturer and inserted into the HTD plate, which was assembled and prepared for sample addition by the dispensing of blank buffer [Delbecco’s phosphate buffered saline (DPBS), 100 µL/well] into the “top half” of each membrane-split well. VU0542270 was diluted into plasma from each species (5 µM final concentration), which was aliquoted in triplicate to the “bottom half” of the prepared HTD plate wells. The HTD plate was sealed and incubated for 6 hours at 37°C. Following incubation, each well (both top and bottom halves) was transferred (20 µL) to the corresponding well of a 96-shallow-well (V-bottom) plate. […]
(§2) fu was calculated as (analyte to IS mass spectrometry (MS) peak area ratio from Trans-buffer side)/(analyte to IS MS peak area ratio from Cis-plasma side). Mean values for each species were calculated from three replicates.

[4] = Plasma binding by equilibrium dialysis, human; assay type: in vitro ADME; conditions: equilibrium dialysis 6 hours 37°C, read-out: Fu, plasma (human)
Protocol: as §1, §2

[5] = Brain homogenate binding by equilibrium dialysis, mouse; assay type: in vitro ADME; conditions: read-out: Fu, brain (mouse)
Protocol: Determination of VU0542270 fu in […] from mouse and rat was conducted using the same methodology and procedure as described for plasma protein binding assay with the following modifications: 1) a final compound concentration of 1 μM was used, and 2) naïve rat brains were homogenized in DPBS (1:3 composition of brain:DPBS, w/w) using a Mini-Bead Beater machine to obtain brain homogenate.
The diluted fraction unbound (fu2) in brain was calculated as (analyte to IS MS peak area ratio from Trans-buffer side)/(analyte to IS MS peak area ratio from Cis-brain homogenate side). Undiluted fraction unbound for the brain was calculated using the following equation: [drawing 1]
Mean values for each species were calculated from three replicates.

IC50 [1]: > 30 µM
fraction unbound at 6 h, 5 µM [3]: 0.01
fraction unbound at 6 h, 5 µM [4]: 0.01
fraction unbound at 6 h, 1 µM [5]: 0.02
Structure (SMILES): Cc1nc(-c2cccs2)sc1CNC(=O)Nc1cccs1 [VU0542270]
inhibition of channels containing SUR1 [2]: not channels containing SUR1
